The record followed here is ChEMBL document CHEMBL1961794, “Regulation of circadian behaviour and metabolism by synthetic REV-ERB agonists” (Nature, 2012).

Each structure is given as a SMILES string.

In this assay the target is T1, Nuclear receptor subfamily 1 group D member 1 (Homo sapiens, UniProt P20393).
T1 sequence (P20393 whole entry): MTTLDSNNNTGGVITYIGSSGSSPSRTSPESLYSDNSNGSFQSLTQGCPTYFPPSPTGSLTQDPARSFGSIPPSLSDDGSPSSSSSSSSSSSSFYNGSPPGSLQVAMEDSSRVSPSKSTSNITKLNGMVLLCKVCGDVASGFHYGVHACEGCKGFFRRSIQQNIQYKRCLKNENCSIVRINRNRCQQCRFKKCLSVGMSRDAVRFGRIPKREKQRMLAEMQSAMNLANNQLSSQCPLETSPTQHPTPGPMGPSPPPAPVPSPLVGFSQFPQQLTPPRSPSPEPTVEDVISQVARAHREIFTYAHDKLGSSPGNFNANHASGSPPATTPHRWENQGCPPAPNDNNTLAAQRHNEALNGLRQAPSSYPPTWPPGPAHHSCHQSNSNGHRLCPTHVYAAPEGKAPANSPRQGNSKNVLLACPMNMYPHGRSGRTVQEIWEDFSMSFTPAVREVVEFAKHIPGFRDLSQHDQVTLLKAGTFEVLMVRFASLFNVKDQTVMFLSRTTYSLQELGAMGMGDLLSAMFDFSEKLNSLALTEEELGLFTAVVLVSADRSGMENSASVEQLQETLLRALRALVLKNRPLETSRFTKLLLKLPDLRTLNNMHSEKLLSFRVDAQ
In words: Increased REV-ERB-alpha LBD dependent repressor activity in HEK293 cell reporter assay. Format: cell-based. The following applies: hek293. For orientation: A reporter such as luciferase makes a cellular process visible.

Consider `CC(C)(C)OC(=O)CN(Cc1ccc(Cl)cc1)Cc1ccc([N+](=O)[O-])s1` [GSK-4112], for which the IC50 entry is recorded as “Not Active”.
